# Data taken from patent US8119805B2, “Substituted disulfonamide compounds” (Gruenenthal GmbH, priority 2008, dated 2012).
# Tests used:
# [1] = biological target: T1, B1R receptor of the rat (rB1R) (Rattus norvegicus, UniProt P97583); assay: Functional investigation on the bradykinin 1 receptor (B1R), FLIPR Ca2+ assay, rB1R cells; type: cell-based; details: test substance 10 μM; CHO K1 cells transfected with rat B1R gene; Fluo-4 Ca2+ signal; agonist Des-Arg9-bradykinin at EC80; % of maximum achievable inhibition; read-out: B1R antagonism, rat [10 μM] % inhibition
# T1 construct: expressed in transfected cells; host or cells: CHO K1 cells
# T1 sequence (P97583 1-337): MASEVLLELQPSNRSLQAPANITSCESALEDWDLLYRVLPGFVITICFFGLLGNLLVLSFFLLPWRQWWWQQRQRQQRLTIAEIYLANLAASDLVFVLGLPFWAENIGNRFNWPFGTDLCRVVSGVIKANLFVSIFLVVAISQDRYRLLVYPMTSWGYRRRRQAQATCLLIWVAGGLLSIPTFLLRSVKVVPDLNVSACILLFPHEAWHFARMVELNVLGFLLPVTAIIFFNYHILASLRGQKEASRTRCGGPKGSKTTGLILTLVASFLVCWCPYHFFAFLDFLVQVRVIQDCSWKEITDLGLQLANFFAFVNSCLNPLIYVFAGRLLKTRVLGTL
# Summary of the method: (§1)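 CHO K1 cells stably expressing human or rat B1R, Fluo-4 loaded, read by FLIPR (λex 488, λem 540 nm). Test compound (10 μM) first gave % activation against Lys-Des-[MUT]-bradykinin ≥50 nM (hB1R) or Des-[MUT]-bradykinin 10 μM (rB1R). After 10–20 min, agonist at EC80 was added; % inhibition or IC50 from concentration series, n=2–3, N≥2.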
# [2] = biological target: T2, human B1R receptor (hB1R) (Homo sapiens, UniProt P46663); assay: Functional investigation on the bradykinin 1 receptor (B1R), FLIPR Ca2+ assay, hB1R cells; type: cell-based; details: test substance 10 μM; CHO K1 cells transfected with human B1R gene; Fluo-4 Ca2+ signal; agonist Lys-Des-Arg9-bradykinin at EC80; % of maximum achievable inhibition; read-out: B1R antagonism, human [10 μM] % inhibition
# T2 construct: expressed in transfected cells; host or cells: CHO K1 cells
# T2 sequence (P46663 1-353): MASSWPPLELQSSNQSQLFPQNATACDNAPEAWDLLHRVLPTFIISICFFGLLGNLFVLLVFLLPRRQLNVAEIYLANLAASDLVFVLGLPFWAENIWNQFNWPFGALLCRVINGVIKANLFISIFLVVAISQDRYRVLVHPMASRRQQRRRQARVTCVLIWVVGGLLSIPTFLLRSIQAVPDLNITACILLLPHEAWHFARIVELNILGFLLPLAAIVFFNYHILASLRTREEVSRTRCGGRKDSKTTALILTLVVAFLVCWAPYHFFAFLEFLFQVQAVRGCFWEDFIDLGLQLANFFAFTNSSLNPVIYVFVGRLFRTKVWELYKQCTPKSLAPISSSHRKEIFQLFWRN
# Summary of the method: as §1
inhibition at 10 µM [1] [%],inhibition at 10 µM [2] [%],Structure (SMILES)
45,38,"O=S(=O)(CCC[C@@H]1CCCN1S(=O)(=O)c1c(Cl)cc(C(F)(F)F)cc1Cl)N1CCC(Oc2ccncc2)CC1 [Example 72, (S)-4-(1-(3-(1-(2,6-Dichloro-4-(Trifluoromethyl)phenylsulfonyl)pyrrolidin-2-yl)propylsulfonyl)piperidin-4-yloxy)pyridine]"
99,89,"Cc1cc(F)cc(C)c1S(=O)(=O)N1CCC[C@H]1CCCS(=O)(=O)N1CCC(Oc2ccncc2)CC1 [Example 73, (S)-4-(1-(3-(1-(4-Fluoro-2,6-dimethylphenylsulfonyl)pyrrolidin-2-yl)propylsulfonyl)piperidin-4-yloxy)pyridine]"
95,99,"COc1cc(C)c(S(=O)(=O)N2CCCCC2CCCS(=O)(=O)N2CCC3(CCN(c4ccncc4)CC3)CC2)c(C)c1 (centres unmarked) [Example 74, 3-(3-(1-(4-Methoxy-2,6-dimethylphenylsulfonyl)piperidin-2-yl)propylsulfonyl)-9-(pyridin-4-yl)-3,9-diazaspiro[5.5]undecane]"
103,100,"COc1cc(C)c(S(=O)(=O)N2CCC[C@H]2CCCS(=O)(=O)N2CCC3(CCN(c4ccncc4)C3)C2)c(C)c1 (stereo partly drawn) [Example 82, 2-(3-((S)-1-(4-Methoxy-2,6-dimethylphenylsulfonyl)pyrrolidin-2-yl)propylsulfonyl)-7-(pyridin-4-yl)-2,7-diazaspiro[4.4]nonane]"
104,99,"Cc1cccc(Cl)c1S(=O)(=O)N1CCC[C@H]1CCCS(=O)(=O)N1CCC2(CCN(c3ccncc3)C2)C1 (stereo partly drawn) [Example 83, 2-(3-((S)-1-(2-Chloro-6-methylphenylsulfonyl)pyrrolidin-2-yl)propylsulfonyl)-7-(pyridin-4-yl)-2,7-diazaspiro[4.4]nonane]"
82,96,"COc1cc(C)c(S(=O)(=O)N2CCC[C@H]2CCCS(=O)(=O)N2CCC3(CCN(c4ccncc4)C3)C2)cc1C (stereo partly drawn) [Example 84, 2-(3-((S)-1-(4-Methoxy-2,5-dimethylphenylsulfonyl)pyrrolidin-2-yl)propylsulfonyl)-7-(pyridin-4-yl)-2,7-diazaspiro[4.4]nonane]"
101,99,"COc1cc(C)c(S(=O)(=O)N2CCC[C@H]2CCCS(=O)(=O)N2CCC3(CCN(c4ccncc4)CC3)C2)c(C)c1 [Example 85, (S)-2-(3-(1-(4-Methoxy-2,6-dimethylphenylsulfonyl)pyrrolidin-2-yl)propylsulfonyl)-8-(pyridin-4-yl)-2,8-diazaspiro[4.5]decane]"
101,99,"Cc1cccc(Cl)c1S(=O)(=O)N1CCCCC1CCCS(=O)(=O)N1CCC2(CCN(c3ccncc3)CC2)CC1 (centres unmarked) [Example 86, 3-(3-(1-(2-Chloro-6-methylphenylsulfonyl)piperidin-2-yl)propylsulfonyl)-9-(pyridin-4-yl)-3,9-diazaspiro[5.5]undecane]"

# Further lines, the compound ahead of its results:
Structure (SMILES),inhibition at 10 µM [1] [%],inhibition at 10 µM [2] [%]
"Cc1ccc(S(=O)(=O)N2CCC[C@H]2CCCS(=O)(=O)N2CCC3(CCN(c4ccncc4)CC3)CC2)c2ccccc12 [Example 75, 3-(3-((S)-1-(4-Methylnaphthalen-1-ylsulfonyl)pyrrolidin-2-yl)propylsulfonyl)-9-(pyridin-4-yl)-3,9-diazaspiro[5.5]undecane]",100,96
"O=S(=O)(CCC[C@@H]1CCCN1S(=O)(=O)c1cccc2c(Cl)cccc12)N1CCC2(CCN(c3ccncc3)CC2)CC1 [Example 76, 3-(3-((S)-1-(5-Chloronaphthalen-1-ylsulfonyl)pyrrolidin-2-yl)propylsulfonyl)-9-(pyridin-4-yl)-3,9-diazaspiro[5.5]undecane]",95,95
"COc1ccc(S(=O)(=O)N2CCC[C@H]2CCCS(=O)(=O)N2CCC3(CCN(c4ccncc4)CC3)CC2)c2ccccc12 [Example 77, 3-(3-((S)-1-(4-Methoxynaphthalen-1-ylsulfonyl)pyrrolidin-2-yl)propylsulfonyl)-9-(pyridin-4-yl)-3,9-diazaspiro[5.5]undecane]",97,81
"O=S(=O)(CCC[C@@H]1CCCN1S(=O)(=O)c1ccc(F)c2ccccc12)N1CCC2(CCN(c3ccncc3)CC2)CC1 [Example 78, 3-(3-((S)-1-(4-Fluoronaphthalen-1-ylsulfonyl)pyrrolidin-2-yl)propylsulfonyl)-9-(pyridin-4-yl)-3,9-diazaspiro[5.5]undecane]",93,91
"O=S(=O)(CCC[C@@H]1CCCN1S(=O)(=O)c1ccc(Cl)c2ccccc12)N1CCC2(CCN(c3ccncc3)CC2)CC1 [Example 79, 3-(3-((S)-1-(4-Chloronaphthalen-1-ylsulfonyl)pyrrolidin-2-yl)propylsulfonyl)-9-(pyridin-4-yl)-3,9-diazaspiro[5.5]undecane]",96,77
"COc1cc(C)c(S(=O)(=O)N2CCC[C@H]2CCCS(=O)(=O)N2CC(N3[C@@H]4CC[C@H]3C[C@H](Oc3ccncc3)C4)C2)c(C)c1 [Example 80, (1R,3s,5S)-8-(1-(3-((S)-1-(4-Methoxy-2,6-ydimethylphenylsulfonyl)pyrrolidin-2-l)propylsulfonyl)azetidin-3-yl)-3-(pyridin-4-yloxy)-8-azabicyclo[3.2.1]octane]",102,99
"Cc1cccc(Cl)c1S(=O)(=O)N1CCC[C@H]1CCCS(=O)(=O)N1CC(N2[C@@H]3CC[C@H]2C[C@H](Oc2ccncc2)C3)C1 [Example 81, (1R,3s,5S)-8-(1-(3-((S)-1-(2-Chloro-6-methylphenylsulfonyl)pyrrolidin-2-yl)propylsulfonyl)azetidin-3-yl)-3-(pyridin-4-yloxy)-8-azabicyclo[3.2.1]octane]",98,96
"COc1cc(C)c(S(=O)(=O)N2CCCCC2CCCS(=O)(=O)N2CCC3(CC2)CCC(OCCN2CCCC2)(c2cccnc2)CC3)c(C)c1 (centres unmarked) [Example 87, 3-(3-(1-(4-Methoxy-2,6-dimethylphenylsulfonyl)piperidin-2-yl)propylsulfonyl)-9-(pyridin-3-yl)-9-(2-(pyrrolidin-1-yl)ethoxy)-3-azaspiro[5.5]undecane]",102,100
